From patent US4471131A, “Novel silyl esters of N-phosphonomethylglycine” (Monsanto Company, priority 1983, dated 1984)

Experiments:
Experiment in all cases: post-emergence herbicidal activity, greenhouse
Assay type in all cases: in vivo
Downy Brome = test system: Downy Brome
Procedure, shortened: (§1)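 Candidate chemical is applied by atomizer at the indicated rates to emerged plants of 2–3 weeks, spray containing about 0.4 wt% emulsifier. Effects are judged as injury against unsprayed control pans, approximately two and four weeks post-application.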

Hemp Sesbania = details: Table III
Procedure, shortened: as §1

Large Crabgrass = details: Table III
Procedure, shortened: as §1

Panicum Spp = details: Table III
Procedure, shortened: as §1

Pennsylvania Smartweed = test system: Pennsylvania Smartweed
Procedure, shortened: as §1

Quackgrass = details: Table II
Procedure, shortened: as §1

Rice = details: Table III
Procedure, shortened: as §1

Velvetleaf = test system: Velvetleaf
Procedure, shortened: as §1

[1] = Table II, 2 WAT, 5.6 kg/h, formulated in anhydrous tetrahydrofuran
[2] = Table II, 2 WAT, 11.2 kg/h, formulated in anhydrous tetrahydrofuran
[3] = Table II, 4 WAT, 5.6 kg/h, formulated in anhydrous tetrahydrofuran
[4] = Table II, 4 WAT, 11.2 kg/h, formulated in anhydrous tetrahydrofuran
[5] = Table III, 2 WAT, 1.1 kg/h, formulated in anhydrous tetrahydrofuran
[6] = Table III, 2 WAT, 5.6 kg/h, formulated in anhydrous tetrahydrofuran
[7] = Table III, 2 WAT, .28 kg/h, formulated in anhydrous tetrahydrofuran
[8] = Table III, 4 WAT, 1.1 kg/h, formulated in anhydrous tetrahydrofuran
[9] = Table III, 4 WAT, 5.6 kg/h, formulated in anhydrous tetrahydrofuran
[10] = Table III, 4 WAT, .28 kg/h, formulated in anhydrous tetrahydrofuran
[11] = 2 WAT, 1.1 kg/h, formulated in anhydrous tetrahydrofuran
[12] = 2 WAT, 5.6 kg/h, formulated in anhydrous tetrahydrofuran
[13] = 2 WAT, .28 kg/h, formulated in anhydrous tetrahydrofuran
[14] = 4 WAT, 1.1 kg/h, formulated in anhydrous tetrahydrofuran
[15] = 4 WAT, 5.6 kg/h, formulated in anhydrous tetrahydrofuran
[16] = 4 WAT, .28 kg/h, formulated in anhydrous tetrahydrofuran

CCOC(=O)CNCP(=O)(O)O[Si](c1ccccc1)(c1ccccc1)C(C)(C)C [Ex. 7, Glycine, N--((([(1,1-Dimethylethyl)Diphenylsilyl]Oxy)Hydroxyphosphinyl)Methyl)-,Ethyl Ester]
0 (0-24% inhibition): Plant Response Index (J) (Downy Brome; [7]) | Plant Response Index (J) (Downy Brome; Table III, 4 WAT, .28 kg/h) | Plant Response Index (J) (Downy Brome; [10]) | Plant Response Index (R) (Hemp Sesbania; [13]) | Plant Response Index (R) (Hemp Sesbania; [16]) | Plant Response Index (O) (Rice; [16])
2 (50-74% inhibition): Plant Response Index (J) (Downy Brome; Table II, 2 WAT, 5.6 kg/h) | Plant Response Index (J) (Downy Brome; Table II, 2 WAT, 11.2 kg/h) | Plant Response Index (J) (Downy Brome; Table III, 2 WAT, 1.1 kg/h) | Plant Response Index (J) (Downy Brome; Table III, 2 WAT, 5.6 kg/h) | Plant Response Index (J) (Downy Brome; [6]) | Plant Response Index (J) (Downy Brome; Table III, 4 WAT, 1.1 kg/h) | Plant Response Index (J) (Downy Brome; Table III, 4 WAT, 5.6 kg/h) | Plant Response Index (R) (Hemp Sesbania; [11]) | Plant Response Index (R) (Hemp Sesbania; [14]) | Plant Response Index (R) (Hemp Sesbania; 4 WAT, 5.6 kg/h) | Plant Response Index (T) (Large Crabgrass; [13]) | Plant Response Index (T) (Large Crabgrass; [16]) | Plant Response Index (S) (Panicum Spp; [11]) | Plant Response Index (S) (Panicum Spp; [14]) | Plant Response Index (F) (Pennsylvania Smartweed; Table II, 2 WAT, 5.6 kg/h) | Plant Response Index (F) (Pennsylvania Smartweed; Table II, 2 WAT, 11.2 kg/h) | Plant Response Index (F) (Pennsylvania Smartweed; Table II, 4 WAT, 11.2 kg/h) | Plant Response Index (F) (Pennsylvania Smartweed; Table III, 2 WAT, 5.6 kg/h) | Plant Response Index (F) (Pennsylvania Smartweed; [7]) | Plant Response Index (F) (Pennsylvania Smartweed; [10]) | Plant Response Index (H) (Quackgrass; 2 WAT, 11.2 kg/h) | Plant Response Index (H) (Quackgrass; [15]) | Plant Response Index (H) (Quackgrass; 4 WAT, 11.2 kg/h, formulated in anhydrous tetrahydrofuran) | Plant Response Index (O) (Rice; 2 WAT, 1.1 kg/h) | Plant Response Index (O) (Rice; 2 WAT, 5.6 kg/h) | Plant Response Index (O) (Rice; 2 WAT, .28 kg/h) | Plant Response Index (C) (Velvetleaf; Table II, 2 WAT, 5.6 kg/h) | Plant Response Index (C) (Velvetleaf; [3]) | Plant Response Index (C) (Velvetleaf; [5]) | Plant Response Index (C) (Velvetleaf; Table III, 2 WAT, 5.6 kg/h) | Plant Response Index (C) (Velvetleaf; [6]) | Plant Response Index (C) (Velvetleaf; [8]) | Plant Response Index (C) (Velvetleaf; Table III, 4 WAT, 5.6 kg/h)
3 (75-99% inhibition): Plant Response Index (J) (Downy Brome; Table II, 4 WAT, 5.6 kg/h) | Plant Response Index (J) (Downy Brome; Table II, 4 WAT, 11.2 kg/h) | Plant Response Index (J) (Downy Brome; [9]) | Plant Response Index (R) (Hemp Sesbania; 2 WAT, 1.1 kg/h) | Plant Response Index (T) (Large Crabgrass; [11]) | Plant Response Index (T) (Large Crabgrass; [12]) | Plant Response Index (T) (Large Crabgrass; [14]) | Plant Response Index (T) (Large Crabgrass; [15]) | Plant Response Index (S) (Panicum Spp; 2 WAT, 5.6 kg/h) | Plant Response Index (S) (Panicum Spp; 2 WAT, .28 kg/h) | Plant Response Index (S) (Panicum Spp; 4 WAT, .28 kg/h) | Plant Response Index (F) (Pennsylvania Smartweed; Table III, 2 WAT, 1.1 kg/h) | Plant Response Index (F) (Pennsylvania Smartweed; Table III, 2 WAT, .28 kg/h) | Plant Response Index (F) (Pennsylvania Smartweed; Table III, 4 WAT, 1.1 kg/h) | Plant Response Index (F) (Pennsylvania Smartweed; Table III, 4 WAT, 5.6 kg/h) | Plant Response Index (F) (Pennsylvania Smartweed; Table III, 4 WAT, .28 kg/h) | Plant Response Index (H) (Quackgrass; 4 WAT, 11.2 kg/h) | Plant Response Index (O) (Rice; [12]) | Plant Response Index (O) (Rice; 4 WAT, 1.1 kg/h) | Plant Response Index (O) (Rice; 4 WAT, 5.6 kg/h) | Plant Response Index (O) (Rice; [15]) | Plant Response Index (C) (Velvetleaf; Table II, 2 WAT, 11.2 kg/h) | Plant Response Index (C) (Velvetleaf; Table II, 4 WAT, 5.6 kg/h) | Plant Response Index (C) (Velvetleaf; Table II, 4 WAT, 11.2 kg/h) | Plant Response Index (C) (Velvetleaf; [9])
1 (25-49% inhibition): Plant Response Index (J) (Downy Brome; [1]) | Plant Response Index (J) (Downy Brome; [2]) | Plant Response Index (J) (Downy Brome; [3]) | Plant Response Index (J) (Downy Brome; [4]) | Plant Response Index (J) (Downy Brome; [5]) | Plant Response Index (J) (Downy Brome; Table III, 2 WAT, .28 kg/h) | Plant Response Index (J) (Downy Brome; [8]) | Plant Response Index (R) (Hemp Sesbania; 2 WAT, 5.6 kg/h) | Plant Response Index (R) (Hemp Sesbania; [12]) | Plant Response Index (R) (Hemp Sesbania; 2 WAT, .28 kg/h) | Plant Response Index (R) (Hemp Sesbania; [15]) | Plant Response Index (R) (Hemp Sesbania; 4 WAT, .28 kg/h) | Plant Response Index (S) (Panicum Spp; [13]) | Plant Response Index (S) (Panicum Spp; [16]) | Plant Response Index (F) (Pennsylvania Smartweed; [1]) | Plant Response Index (F) (Pennsylvania Smartweed; [2]) | Plant Response Index (F) (Pennsylvania Smartweed; [3]) | Plant Response Index (H) (Quackgrass; 2 WAT, 5.6 kg/h) | Plant Response Index (H) (Quackgrass; [12]) | Plant Response Index (H) (Quackgrass; 2 WAT, 11.2 kg/h, formulated in anhydrous tetrahydrofuran) | Plant Response Index (O) (Rice; [11]) | Plant Response Index (O) (Rice; [13]) | Plant Response Index (O) (Rice; [14]) | Plant Response Index (O) (Rice; 4 WAT, .28 kg/h) | Plant Response Index (C) (Velvetleaf; [1]) | Plant Response Index (C) (Velvetleaf; [2]) | Plant Response Index (C) (Velvetleaf; [4]) | Plant Response Index (C) (Velvetleaf; Table III, 2 WAT, 1.1 kg/h) | Plant Response Index (C) (Velvetleaf; Table III, 2 WAT, .28 kg/h) | Plant Response Index (C) (Velvetleaf; [7]) | Plant Response Index (C) (Velvetleaf; Table III, 4 WAT, 1.1 kg/h) | Plant Response Index (C) (Velvetleaf; Table III, 4 WAT, .28 kg/h) | Plant Response Index (C) (Velvetleaf; [10])
4 (100% inhibition): Plant Response Index (R) (Hemp Sesbania; 4 WAT, 1.1 kg/h) | Plant Response Index (T) (Large Crabgrass; 2 WAT, 1.1 kg/h) | Plant Response Index (T) (Large Crabgrass; 4 WAT, 1.1 kg/h) | Plant Response Index (S) (Panicum Spp; 2 WAT, 1.1 kg/h) | Plant Response Index (S) (Panicum Spp; [12]) | Plant Response Index (S) (Panicum Spp; 4 WAT, 1.1 kg/h) | Plant Response Index (S) (Panicum Spp; 4 WAT, 5.6 kg/h) | Plant Response Index (S) (Panicum Spp; [15]) | Plant Response Index (F) (Pennsylvania Smartweed; Table II, 4 WAT, 5.6 kg/h) | Plant Response Index (F) (Pennsylvania Smartweed; [4]) | Plant Response Index (F) (Pennsylvania Smartweed; [5]) | Plant Response Index (F) (Pennsylvania Smartweed; [6]) | Plant Response Index (F) (Pennsylvania Smartweed; [8]) | Plant Response Index (F) (Pennsylvania Smartweed; [9]) | Plant Response Index (H) (Quackgrass; 4 WAT, 5.6 kg/h)
